First: CCC(C)Nc1ccc2n[nH]c(=O)n2n1 (stereo unspecified)
Second: CCCCNc1c(C(=O)O)cnc2[nH]ncc12
The melting point of the first is lower: 214 to 216 °C for the first, 225 °C for the second.

First: CCCCCCS(=O)(=O)c1nn2c(=O)c([N+](=O)[O-])c(OC)nc2s1
Second: COc1cc(OC)cc(-c2nc(C)nn2-c2ccc(S(N)(=O)=O)cc2)c1
The melting point of the first is lower: 150 to 152 °C for the first, 207 to 208 °C for the second.

First: CCOc1nn(-c2ccc(C(F)(F)F)cn2)cc1CCCOc1cc(CC(=O)O)ccc1OC
Second: COc1cn(-c2cccc(C(F)(F)F)c2)nc(C(=O)C=CN(C)C)c1=O
The melting point of the first is lower: 142 to 143 °C for the first, 176 to 178 °C for the second.

Compared with `CC(=O)NC[C@H]1CN(c2ccc(C3=CN(C(=O)CO)CCC3)c(F)c2)C(=O)O1`, `COc1ccc(C(=O)CCC2CCN(C(C)=O)CC2)cc1NC(=O)C(F)(F)F` is lower in melting point: 171 to 173 °C for the first, 77 to 79 °C for the second.

First: OCCC1Cc2ccccc2C1O (stereo unspecified)
Second: Cc1nc(Cc2ccccc2N)n[nH]1
The melting point of the first is lower: 80 to 82 °C for the first, 143 to 145 °C for the second.

First: CN(C)c1ccc(C(=O)C(F)(F)c2ccccc2)cc1
Second: CN(c1ccc(O)cc1)S(=O)(=O)c1ccc(C(F)(F)F)cc1
The melting point of the first is lower: 115 to 116 °C for the first, 145 to 146 °C for the second.

Compared with `CCOC(=O)C(c1ccc(NC(=O)OC(C)(C)C)cc1)N(C)C(C)C` (stereo unspecified), `COC(=O)COc1ccc(C(=O)CN)cc1` is higher in melting point: 87 to 88 °C for the first, 135 to 136 °C for the second.

First: CCCOc1c(OC)cc(NC(C)CCCN2C(=O)c3ccccc3C2=O)c2ncccc12 (stereo unspecified)
Second: CCN1c2ncc(CCc3ccc(C(=O)OC)cc3)cc2C(=O)N(C)c2cccnc21
The melting point of the first is lower: 140 to 143 °C for the first, 172 to 173 °C for the second.

First: CC(=O)c1c(-c2ccccc2)nn(CC2CC2)c(=O)c1Nc1cccc2ncccc12
Second: COC(=O)c1cccc2cc(-c3ccccc3)oc12
The melting point of the first is higher: 204 to 205 °C for the first, 45 to 47 °C for the second.

First: Nc1nc(N)c(CCCCCc2ccccc2)c(CCCCc2ccccc2)n1
Second: OC(CCCCCCCCOCc1ccccc1)c1ccc(OCc2ccccc2)c(OCc2ccccc2)c1 (stereo unspecified)
The melting point of the first is higher: 75 to 78 °C for the first, 46 to 48 °C for the second.

First: c1ccc(C(CCc2c[nH]cn2)c2ccccc2)cc1
Second: Cc1nc2ccccc2nc1Oc1ccc(OCc2ccccc2)cc1
The melting point of the first is higher: 115 to 117 °C for the first, 99 to 102 °C for the second.

First: O=C(O)C(=O)CC(=O)c1cccn1Cc1cccc2ccccc12
Second: CNC(=O)c1cccc(NC(=O)Cc2cccc3ccccc23)c1
The melting point of the first is lower: 172 to 174 °C for the first, 201 to 202 °C for the second.

First: Cc1c(NC(=O)CC(C)(C)C)cc2c(c1C)OC(C)(C)C2c1ccccc1 (stereo unspecified)
Second: Cc1c(C)c2c(c(C)c1O)CC(C)C(C(=S)Nc1ccccc1)O2 (stereo unspecified)
The melting point of the first is higher: 182 to 183 °C for the first, 175 °C for the second.

Compared with `COc1ccc(C=CC(=O)NNC(=O)C=Cc2ccc(OC)cc2)cc1`, `Cc1cc(/C=C/C(=O)N(C)O)c(C)n1-c1ccc(C(=O)N(C)C)cc1` is lower in melting point: 288 °C for the first, 172 to 174 °C for the second.

First: CCn1cc(C(=O)O)c(=O)c2cc(F)c(N3CCNC(c4ccsc4)C3)cc21 (stereo unspecified)
Second: CC1c2ccc(F)n2-c2cc(F)c(F)cc2N1S(=O)(=O)c1ccc(O)cc1 (stereo unspecified)
The melting point of the first is higher: 198 to 200 °C for the first, 184 to 189 °C for the second.

Compared with `CC(C)(C)C(=O)c1c[nH]c2ncc(C3=C(c4ccccc4)CCC3)nc12`, `Cc1cc(C)c2nc(C3CC3)n(Cc3ccc(C4(C(=O)O)Cc5ccccc5C4)s3)c2n1` is higher in melting point: 207 to 209 °C for the first, 250 to 252 °C for the second.

Compared with `CNC(=O)c1ccccc1Sc1ccc(COC(C)=O)cc1[N+](=O)[O-]`, `O=[N+]([O-])c1cc(I)cc(OCc2ccccc2)c1` is lower in melting point: 111 to 113 °C for the first, 79 to 80 °C for the second.

Compared with `CC(c1ccc(O)cc1)(c1ccc(O)cc1)c1ccc(C(C)(c2ccc(O)cc2)c2ccc(O)cc2)cc1`, `O=C1c2c(O)ccc(O)c2C(=O)c2c(NCCN=Cc3ccccc3)ccc(NCCN=Cc3ccccc3)c21` is lower in melting point: 307 °C for the first, 174 to 179 °C for the second.

First: COc1cc2cc(OCc3ccccc3)cnc2cc1OC
Second: COC(=O)c1nc(N=[N+]=[N-])ccc1OCc1ccccc1
The melting point of the first is higher: 146 to 148 °C for the first, 88 to 89 °C for the second.

First: Cc1nc(N2CCN(Cc3ccc4nonc4c3)C2=O)sc1C(=O)NCc1cccnc1
Second: COc1cc(Cl)ccc1N(Cc1cccnc1)S(C)(=O)=O
The melting point of the first is lower: 110 to 112 °C for the first, 121 to 123 °C for the second.

First: COc1cc(F)ccc1Nc1ccc2c(c1)OCc1cc(N)ccc1C2=O
Second: CC(=O)c1cc(S(=O)(=O)c2cccc(F)c2)ccc1OC[C@@H]1CO1
The melting point of the first is lower: 38.9 °C for the first, 113 to 115 °C for the second.

Compared with `C=C(C)C(=O)Oc1c(C(C)c2cc(C(C)(C)CC)cc(C(C)(C)CC)c2O)cc(C(C)(C)CC)cc1C(C)(C)CC` (stereo unspecified), `CCOC(=O)c1cn(-c2nc(NC(C)(C)C)c(F)cc2Cl)c2c(Cl)c(F)c(F)cc2c1=O` is higher in melting point: 103 to 105 °C for the first, 210 to 213 °C for the second.

Compared with `CC1(C)CC(C(O)CNc2nc(NCc3ccccc3)nc(NCC(O)C3CC(C)(C)NC(C)(C)C3)n2)CC(C)(C)N1` (stereo unspecified), `O=C(CCn1cnc2c(=O)[nH]cnc21)NC(Cc1ccccc1)C(=O)O` (stereo unspecified) is higher in melting point: 88 °C for the first, 240 to 242 °C for the second.

First: O=[N+]([O-])c1ccc2c(c1)C(O)Cc1ccc(F)cc1S2 (stereo unspecified)
Second: O=C1Cc2cc3c(cc2C(c2ccc([N+](=O)[O-])cc2Cl)=NN1)OCO3
The melting point of the first is lower: 149 to 151 °C for the first, 202 to 204 °C for the second.

First: CCN(CC)C(=O)CCc1ccc(O)c(N)c1
Second: C=CCON=C(CCC)C1=C(O)CC(c2ccc(C(=O)SCC)cc2)CC1=O (stereo unspecified)
The melting point of the first is higher: 92 to 93 °C for the first, 72 to 75 °C for the second.

First: N#Cc1cccnc1N1CCN(CC(=O)Nc2ccc(F)c(Cl)c2)CC1
Second: N#Cc1cc(C(=O)Nc2ccc(F)cn2)nc(C(F)(F)F)c1
The melting point of the first is lower: 137 to 140 °C for the first, 186 °C for the second.

Compared with `CC1C(=O)N(c2ccc([N+](=O)[O-])cc2)C(=S)N1c1ccc(Cc2ccccc2)cc1` (stereo unspecified), `O=C(O)c1cc2cc(Cl)ccc2nc1NC(Cc1ccc(C#Cc2ccccc2)cc1)C(=O)O` (stereo unspecified) is lower in melting point: 200 °C for the first, 164 to 173 °C for the second.

Compared with `O=C1CC2CCCCC2C(=O)C1C(=O)c1ccc(Cl)cc1[N+](=O)[O-]` (stereo unspecified), `COC(=O)C1=C(CF)NC(C)=C(C(=O)OC2CCCC2)C1c1cccc([N+](=O)[O-])c1C` (stereo unspecified) is higher in melting point: 112 °C for the first, 167 to 168 °C for the second.

First: Cc1noc(NS(=O)(=O)c2ccc(Cl)cc2Cl)c1Br
Second: Nc1cc(Cl)cc(Cl)c1C(=O)NCc1cccc(Br)c1
The melting point of the first is lower: 138 to 141 °C for the first, 157 to 159 °C for the second.

First: Cc1ccccc1[C@H]1CC[C@@H](c2ccccc2)N1C(=O)CNC(=O)Nc1cccc(CC(=O)O)c1 (racemic)
Second: Cc1ccc(S(=O)(=O)N2CC(NC(=O)c3ccccc3)CC2C(=O)O)cc1 (stereo unspecified)
The melting point of the first is higher: 133 °C for the first, 120 to 125 °C for the second.

Compared with `Fc1ccc(Cn2cnc3ccccc32)cc1`, `CCn1cc(-c2c(-c3ccccc3F)nn3ccncc23)ccc1=O` is higher in melting point: 60 to 62 °C for the first, 173 to 174 °C for the second.

First: O=C1CNc2ncc(I)cc2N1Cc1cc(F)c(F)cc1F
Second: CC(C)Nc1c(-c2c(F)cc(F)cc2F)c(F)nc2nccnc12
The melting point of the first is higher: 227 to 228 °C for the first, 127 to 128 °C for the second.

First: CC(C)(S)CN1CCN(CCOCCO)CC1
Second: CCC(=O)NCCC1CCc2c(F)cc3nn(C)cc3c21 (stereo unspecified)
The melting point of the first is lower: 38 °C for the first, 117 to 119 °C for the second.

First: CC(=O)c1cccc(S(=O)(=O)C[N+](=O)[O-])c1
Second: CC(=O)c1ccc(S(=O)(=O)NCC(=O)O)cc1
The melting point of the first is lower: 99 to 100 °C for the first, 213 to 215 °C for the second.

First: COc1ccc2[nH]cc(C(C)N3CCCCC3=O)c2c1 (stereo unspecified)
Second: CCC1CC2C3CCc4cc(OC)ccc4C3CCC2(C)C1=O (stereo unspecified)
The melting point of the first is higher: 150 °C for the first, 93 to 94 °C for the second.

Compared with `CC(C)(C)NCC(O)C(Cl)(Cl)Cl` (stereo unspecified), `CC(C)(Cc1cccc(C(=O)c2cccc(CC(C)(C)C(=O)O)c2)c1)C(=O)O` is lower in melting point: 48 to 50 °C for the first, 46 to 48 °C for the second.

Going from `N#CNc1nnc(-c2ccccc2Nc2cccc(C(F)(F)F)c2)o1` to `Cc1cc2ncc(-c3cccc(C(F)(F)F)c3)c(N)n2n1`, the melting point falls from > 230 °C to 176 °C.

Compared with `O=C(c1ccc(CBr)cc1)c1c(Cl)cccc1Cl`, `CCCCc1oc2ccc(C(=O)OC)cc2c1C(=O)c1ccc(CCN=[N+]=[N-])cc1` is lower in melting point: 126 to 130 °C for the first, 60 to 62 °C for the second.

First: N#CCC(c1ccccn1)c1cc(N)cc2c1OCC2 (stereo unspecified)
Second: O=[N+]([O-])c1cc2c(cc1Sc1ccccn1)CCC2
The melting point of the first is higher: 143 to 144 °C for the first, 74 °C for the second.

Compared with `CCCCCCCCCCCCCc1nc(N)no1`, `CCCc1nc2cc(C(=O)c3ccccc3)ccc2[nH]1` is higher in melting point: 90 to 91 °C for the first, 131 to 132 °C for the second.

First: Cn1cnc(COc2ccc(-c3cc(-c4c[nH]nc4-c4ccccn4)ccn3)cc2)c1
Second: Cc1cccc(-c2n[nH]cc2-c2ccc(F)c(-c3c[nH]c(C(O)CO)n3)c2)n1 (stereo unspecified)
The melting point of the first is lower: 104 °C for the first, 125 to 127 °C for the second.

First: CNCc1ccc(-c2cc3c4c(ccn4C(=O)CNC3)c2)cc1
Second: CCCNC(=O)Nc1cc(-c2c(-c3ccc(F)cc3)nc3cccnn23)ccn1
The melting point of the first is lower: 178 to 180 °C for the first, 219 to 220 °C for the second.

Compared with `COc1cc(C(C)=O)c(OC)cc1Cl`, `CNc1nc(-c2cccc(-c3cccc(SC)c3)c2)c2cc(OC)c(OC)cc2n1` is higher in melting point: 96 °C for the first, 195 to 197 °C for the second.

Compared with `CCN1C(=O)C(C)(C)c2ccc(C(=O)Nc3ccc(C#N)cc3)cc21`, `CC(=O)Nc1ccc(C2COc3cc(O)c(O)cc3C2)cc1` (stereo unspecified) is lower in melting point: 211 to 213 °C for the first, 201 to 203 °C for the second.

First: CCSCc1cccc(-c2nc(=O)c3ccccc3s2)n1
Second: CC(C)(CCc1cc2cc(Cl)ccc2n1S(=O)(=O)c1ccccc1)C(=O)O
The melting point of the first is lower: 142 to 144 °C for the first, 242 °C for the second.

First: CCOP(=O)(OCC)C1(P(=O)(OCC)OCC)CC(C(=O)c2ccccc2)=NN1
Second: C[C@H](CSC(=O)c1ccccc1)C(=O)O
The melting point of the first is higher: 134 °C for the first, 63 to 65 °C for the second.

First: Nc1cc(Cl)cc2cccnc12
Second: ClCC1(CCl)Cc2cccc3cccc1c23
The melting point of the first is lower: 70 to 73 °C for the first, 212 to 213 °C for the second.

First: CC(C)C(C(=O)O)N1CC(N)C1=O (stereo unspecified)
Second: CC(O)C#Cc1cccc(NC(=O)Nc2ncc(C(C)C)s2)c1 (stereo unspecified)
The melting point of the first is higher: 178 to 183 °C for the first, 71 to 73 °C for the second.

First: CCCCc1oc2ccccc2c1-c1ncc(-c2ccc3cc(OC(Cc4ccccc4)C(=O)O)ccc3c2)o1 (stereo unspecified)
Second: Cc1oc(-c2ccc(Cl)cc2)nc1CC(=O)O
The melting point of the first is higher: 174 to 177 °C for the first, 160 to 161 °C for the second.

First: C=C1c2ccccc2CC(=NO)c2ccccc21
Second: O=C(c1sc2c(ccc(=O)n2-c2ccccc2)c1Br)N1CC(OC2CCCCO2)C1 (stereo unspecified)
The melting point of the first is lower: 156 to 160 °C for the first, 162 °C for the second.

In the case of `CC(C#Cc1cccc(Oc2ccsc2)c1)N(O)C(N)=O` (stereo unspecified), the melting point is reported as 93 to 95 °C.
